{
  "source": "patent US9198419B2",
  "about": "“Use of pro-fungicides of UK-2A for control of black sigatoka” (Dow AgroSciences LLC, priority 2012, dated 2015)",
  "tested_on": "Black Sigatoka on Bananas",
  "test": "Assessment of disease in field plots: Black Sigatoka on banana plants, natural inoculation",
  "assay_type": "in vivo, Mycosphaerella fijiensis",
  "details": "for Disease Severity (AUDPC): 61 Day After Application, Area Under Disease Progression Curve, banana field plots; for Total Number of Functional Leaves: bananas",
  "procedure": "Aliquots of a 10% SC formulation of Compound I were diluted into water and mixed with Spraytex CT mineral oil (7 L/Ha) to achieve active ingredient application rates of 50, 100, 150, 200, 300 & 400 g a.i./Ha. These treatments were delivered to banana plants in field plots at an application volume of 23 L/Ha, using a Solo back-pack pump sprayer fitted with a Micronair AU8000 atomizer. A total of five applications were made at 10 day intervals. Experimental design was based on a randomized complete block, and 4 replications. Disease symptoms resulted from natural inoculation and epidemic development. Total experimental plot size was 96 m^2. Efficacy was determined by both percent visual infection and the number of functional leaves.",
  "data": [
    {"molecule": "COc1ccnc(C(=O)N[C@H]2COC(=O)[C@H](Cc3ccccc3)[C@@H](OC(=O)C(C)C)[C@H](C)OC2=O)c1OCOC(=O)C(C)C", "note": "[Compound I]", "values": [
      {"measurement": "Disease Severity (AUDPC)", "setting": "Compound I 50 ppm", "result": 29},
      {"measurement": "Disease Severity (AUDPC)", "setting": "Compound I 100 ppm", "result": 34},
      {"measurement": "Disease Severity (AUDPC)", "setting": "Compound I 150 ppm", "result": 29},
      {"measurement": "Disease Severity (AUDPC)", "setting": "Compound I 200 ppm", "result": 28},
      {"measurement": "Disease Severity (AUDPC)", "setting": "Compound I 300 ppm", "result": 35},
      {"measurement": "Total Number of Functional Leaves", "setting": "Rate 50 g ai/ha, Week 10", "result": 12.8},
      {"measurement": "Total Number of Functional Leaves", "setting": "Rate 50 g ai/ha, Week 13", "result": 13.0},
      {"measurement": "Total Number of Functional Leaves", "setting": "Rate 50 g ai/ha, Week 15", "result": 14.7},
      {"measurement": "Total Number of Functional Leaves", "setting": "Rate 100 g ai/ha, Week 10", "result": 9.3},
      {"measurement": "Total Number of Functional Leaves", "setting": "Rate 100 g ai/ha, Week 13", "result": 12.7},
      {"measurement": "Total Number of Functional Leaves", "setting": "Rate 100 g ai/ha, Week 15", "result": 14.1},
      {"measurement": "Total Number of Functional Leaves", "setting": "Rate 200 g ai/ha, Week 10", "result": 8.6},
      {"measurement": "Total Number of Functional Leaves", "setting": "Rate 200 g ai/ha, Week 13", "result": 12.3},
      {"measurement": "Total Number of Functional Leaves", "setting": "Rate 200 g ai/ha, Week 15", "result": 14.0},
      {"measurement": "Total Number of Functional Leaves", "setting": "Rate 400 g ai/ha, Week 10", "result": 8.7},
      {"measurement": "Total Number of Functional Leaves", "setting": "Rate 400 g ai/ha, Week 13", "result": 12.7},
      {"measurement": "Total Number of Functional Leaves", "setting": "Rate 400 g ai/ha, Week 15", "result": 14.0}
    ]}
  ]
}
